Reference: ChEMBL document CHEMBL1743141, “Membrane transporters in drug development” (Nat Rev Drug Discov, 2010)

Key:
Assay type in all cases: ADME
[1] = molecular target: T1, Solute carrier family 22 member 2 (Homo sapiens, UniProt O15244); assay: Inhibitors of transporters of clinical importance in the absorption and disposition of drugs, OCT2
T1 sequence (O15244 whole entry): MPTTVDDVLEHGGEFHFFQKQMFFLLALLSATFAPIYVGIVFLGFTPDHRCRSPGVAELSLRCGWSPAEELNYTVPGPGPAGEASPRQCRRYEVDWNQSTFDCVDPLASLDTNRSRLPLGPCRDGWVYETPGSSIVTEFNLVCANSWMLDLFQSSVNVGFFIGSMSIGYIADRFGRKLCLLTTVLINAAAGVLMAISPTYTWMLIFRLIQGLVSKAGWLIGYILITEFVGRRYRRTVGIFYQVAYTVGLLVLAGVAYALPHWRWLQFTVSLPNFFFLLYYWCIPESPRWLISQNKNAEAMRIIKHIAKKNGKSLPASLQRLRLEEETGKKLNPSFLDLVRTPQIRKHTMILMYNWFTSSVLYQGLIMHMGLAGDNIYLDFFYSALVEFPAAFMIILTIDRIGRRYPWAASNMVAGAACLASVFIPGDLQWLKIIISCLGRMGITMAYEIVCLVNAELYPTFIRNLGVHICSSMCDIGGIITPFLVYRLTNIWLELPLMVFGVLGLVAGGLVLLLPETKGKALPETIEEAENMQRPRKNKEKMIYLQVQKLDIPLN

[2] = molecular target: Phosphatidylcholine translocator ABCB4 (Homo sapiens, UniProt P21439); assay: Substrates of transporters of clinical importance in the absorption and disposition of drugs, MDR3
Chain of Phosphatidylcholine translocator ABCB4 (P21439 whole entry): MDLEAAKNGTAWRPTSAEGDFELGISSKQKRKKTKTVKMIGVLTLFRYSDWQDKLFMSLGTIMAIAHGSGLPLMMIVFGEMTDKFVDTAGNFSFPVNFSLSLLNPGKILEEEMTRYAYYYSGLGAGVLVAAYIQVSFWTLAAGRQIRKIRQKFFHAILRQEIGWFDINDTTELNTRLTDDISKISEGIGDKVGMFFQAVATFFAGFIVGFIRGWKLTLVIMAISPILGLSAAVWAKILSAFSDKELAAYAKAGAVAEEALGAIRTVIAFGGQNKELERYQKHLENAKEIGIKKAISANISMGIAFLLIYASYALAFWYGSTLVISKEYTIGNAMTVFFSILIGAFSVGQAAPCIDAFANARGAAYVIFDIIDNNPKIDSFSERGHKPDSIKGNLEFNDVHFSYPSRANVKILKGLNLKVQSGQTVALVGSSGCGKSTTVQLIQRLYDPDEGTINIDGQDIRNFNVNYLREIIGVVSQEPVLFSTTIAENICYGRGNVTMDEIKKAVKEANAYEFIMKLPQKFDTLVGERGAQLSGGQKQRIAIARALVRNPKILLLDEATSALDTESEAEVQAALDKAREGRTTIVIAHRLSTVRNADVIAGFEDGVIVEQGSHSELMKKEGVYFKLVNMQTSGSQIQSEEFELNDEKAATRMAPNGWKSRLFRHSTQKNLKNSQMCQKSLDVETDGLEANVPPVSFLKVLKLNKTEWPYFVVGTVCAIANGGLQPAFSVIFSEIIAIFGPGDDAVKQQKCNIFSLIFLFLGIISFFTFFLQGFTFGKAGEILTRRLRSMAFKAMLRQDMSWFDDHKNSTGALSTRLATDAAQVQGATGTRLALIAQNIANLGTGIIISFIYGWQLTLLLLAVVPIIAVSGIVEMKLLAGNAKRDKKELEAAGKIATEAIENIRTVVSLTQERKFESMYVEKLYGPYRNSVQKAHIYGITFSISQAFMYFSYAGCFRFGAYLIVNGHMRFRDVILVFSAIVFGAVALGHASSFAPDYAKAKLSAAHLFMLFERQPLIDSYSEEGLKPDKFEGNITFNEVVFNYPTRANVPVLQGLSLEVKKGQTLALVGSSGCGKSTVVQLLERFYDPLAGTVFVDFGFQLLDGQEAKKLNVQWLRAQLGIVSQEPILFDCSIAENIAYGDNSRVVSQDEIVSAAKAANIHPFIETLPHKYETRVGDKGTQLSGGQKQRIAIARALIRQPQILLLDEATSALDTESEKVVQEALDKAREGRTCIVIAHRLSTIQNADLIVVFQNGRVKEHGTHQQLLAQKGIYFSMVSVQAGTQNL

[3] = molecular target: ATP-dependent translocase ABCB1 (Homo sapiens, UniProt P08183); assay: Substrates of transporters of clinical importance in the absorption and disposition of drugs, MDR1
Chain of ATP-dependent translocase ABCB1 (P08183 whole entry): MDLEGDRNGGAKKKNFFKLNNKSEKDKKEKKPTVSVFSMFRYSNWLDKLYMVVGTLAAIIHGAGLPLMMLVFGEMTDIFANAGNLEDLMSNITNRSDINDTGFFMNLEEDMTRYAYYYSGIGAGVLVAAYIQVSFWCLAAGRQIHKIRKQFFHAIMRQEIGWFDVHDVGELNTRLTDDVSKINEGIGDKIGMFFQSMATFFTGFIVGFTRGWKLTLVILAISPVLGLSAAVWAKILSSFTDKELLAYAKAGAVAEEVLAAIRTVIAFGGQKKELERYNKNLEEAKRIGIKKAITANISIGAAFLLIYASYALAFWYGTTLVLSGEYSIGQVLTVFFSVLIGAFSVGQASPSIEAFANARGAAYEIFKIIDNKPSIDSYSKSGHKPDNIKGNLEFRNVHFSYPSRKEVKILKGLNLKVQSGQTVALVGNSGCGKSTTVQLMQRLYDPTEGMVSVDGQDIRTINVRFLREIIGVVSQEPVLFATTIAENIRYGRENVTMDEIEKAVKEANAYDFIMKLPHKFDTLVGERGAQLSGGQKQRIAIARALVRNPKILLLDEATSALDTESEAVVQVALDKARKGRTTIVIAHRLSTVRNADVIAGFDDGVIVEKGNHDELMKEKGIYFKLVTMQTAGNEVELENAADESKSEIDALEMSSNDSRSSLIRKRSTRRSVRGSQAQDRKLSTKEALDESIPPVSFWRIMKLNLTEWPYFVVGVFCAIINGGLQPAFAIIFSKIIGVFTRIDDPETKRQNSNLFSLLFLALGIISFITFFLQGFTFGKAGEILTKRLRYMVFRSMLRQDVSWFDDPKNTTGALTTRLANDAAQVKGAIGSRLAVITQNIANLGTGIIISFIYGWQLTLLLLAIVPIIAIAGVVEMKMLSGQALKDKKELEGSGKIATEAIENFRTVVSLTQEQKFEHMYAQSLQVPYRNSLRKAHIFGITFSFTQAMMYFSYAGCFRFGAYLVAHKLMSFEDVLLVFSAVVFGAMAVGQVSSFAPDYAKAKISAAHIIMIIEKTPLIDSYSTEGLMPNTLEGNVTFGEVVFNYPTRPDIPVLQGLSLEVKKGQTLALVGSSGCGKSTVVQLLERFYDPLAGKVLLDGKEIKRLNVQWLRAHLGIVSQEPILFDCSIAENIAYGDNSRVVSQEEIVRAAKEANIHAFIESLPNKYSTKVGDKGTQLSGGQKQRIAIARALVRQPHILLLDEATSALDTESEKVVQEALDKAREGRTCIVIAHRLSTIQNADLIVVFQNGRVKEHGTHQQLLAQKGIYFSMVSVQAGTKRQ

[4] = molecular target: T2, Solute carrier organic anion transporter family member 1B1 (Homo sapiens, UniProt Q9Y6L6); assay: Substrates of transporters of clinical importance in the absorption and disposition of drugs, OATP1B1
T2 sequence (Q9Y6L6 whole entry): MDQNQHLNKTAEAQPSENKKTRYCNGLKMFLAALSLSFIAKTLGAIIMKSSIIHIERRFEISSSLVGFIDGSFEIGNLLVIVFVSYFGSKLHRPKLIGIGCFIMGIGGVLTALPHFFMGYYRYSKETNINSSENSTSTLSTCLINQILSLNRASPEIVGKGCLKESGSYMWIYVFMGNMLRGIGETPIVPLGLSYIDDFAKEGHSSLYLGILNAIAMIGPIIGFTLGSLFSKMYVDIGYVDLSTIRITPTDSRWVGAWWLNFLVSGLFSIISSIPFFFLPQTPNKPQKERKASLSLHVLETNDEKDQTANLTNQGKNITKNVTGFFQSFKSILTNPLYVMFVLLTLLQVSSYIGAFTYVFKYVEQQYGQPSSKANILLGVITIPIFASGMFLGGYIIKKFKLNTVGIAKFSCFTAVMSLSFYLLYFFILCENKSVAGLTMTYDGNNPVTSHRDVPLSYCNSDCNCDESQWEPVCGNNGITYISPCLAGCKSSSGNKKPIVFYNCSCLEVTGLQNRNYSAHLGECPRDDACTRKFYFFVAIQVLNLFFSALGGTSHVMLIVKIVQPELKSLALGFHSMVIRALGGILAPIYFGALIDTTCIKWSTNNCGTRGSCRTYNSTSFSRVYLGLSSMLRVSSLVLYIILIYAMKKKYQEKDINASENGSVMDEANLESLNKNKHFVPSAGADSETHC

[5] = molecular target: T3, Solute carrier organic anion transporter family member 1A2 (Homo sapiens, UniProt P46721); assay: Substrates of transporters of clinical importance in the absorption and disposition of drugs, OATP1A2
T3 sequence (P46721 whole entry): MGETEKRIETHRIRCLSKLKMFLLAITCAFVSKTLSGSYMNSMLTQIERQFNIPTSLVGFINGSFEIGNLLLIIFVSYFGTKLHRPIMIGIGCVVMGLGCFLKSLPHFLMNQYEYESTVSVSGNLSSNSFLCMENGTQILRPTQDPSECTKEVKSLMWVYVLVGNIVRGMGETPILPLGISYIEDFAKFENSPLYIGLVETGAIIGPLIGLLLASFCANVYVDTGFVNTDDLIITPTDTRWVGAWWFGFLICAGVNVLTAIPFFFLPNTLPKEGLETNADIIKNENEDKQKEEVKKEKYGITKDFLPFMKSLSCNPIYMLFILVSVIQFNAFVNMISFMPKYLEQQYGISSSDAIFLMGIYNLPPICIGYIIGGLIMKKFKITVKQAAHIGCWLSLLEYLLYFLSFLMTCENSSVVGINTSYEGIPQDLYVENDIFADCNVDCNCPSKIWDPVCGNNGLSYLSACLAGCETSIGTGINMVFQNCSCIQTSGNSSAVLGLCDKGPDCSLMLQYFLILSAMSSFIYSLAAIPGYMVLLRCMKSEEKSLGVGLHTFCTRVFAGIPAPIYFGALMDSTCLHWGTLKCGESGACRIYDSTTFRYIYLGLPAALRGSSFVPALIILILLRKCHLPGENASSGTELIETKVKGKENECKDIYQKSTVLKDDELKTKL

[6] = molecular target: T4, Solute carrier organic anion transporter family member 2B1 (Homo sapiens, UniProt O94956); assay: Substrates of transporters of clinical importance in the absorption and disposition of drugs, OATP2B1
T4 sequence (O94956 whole entry): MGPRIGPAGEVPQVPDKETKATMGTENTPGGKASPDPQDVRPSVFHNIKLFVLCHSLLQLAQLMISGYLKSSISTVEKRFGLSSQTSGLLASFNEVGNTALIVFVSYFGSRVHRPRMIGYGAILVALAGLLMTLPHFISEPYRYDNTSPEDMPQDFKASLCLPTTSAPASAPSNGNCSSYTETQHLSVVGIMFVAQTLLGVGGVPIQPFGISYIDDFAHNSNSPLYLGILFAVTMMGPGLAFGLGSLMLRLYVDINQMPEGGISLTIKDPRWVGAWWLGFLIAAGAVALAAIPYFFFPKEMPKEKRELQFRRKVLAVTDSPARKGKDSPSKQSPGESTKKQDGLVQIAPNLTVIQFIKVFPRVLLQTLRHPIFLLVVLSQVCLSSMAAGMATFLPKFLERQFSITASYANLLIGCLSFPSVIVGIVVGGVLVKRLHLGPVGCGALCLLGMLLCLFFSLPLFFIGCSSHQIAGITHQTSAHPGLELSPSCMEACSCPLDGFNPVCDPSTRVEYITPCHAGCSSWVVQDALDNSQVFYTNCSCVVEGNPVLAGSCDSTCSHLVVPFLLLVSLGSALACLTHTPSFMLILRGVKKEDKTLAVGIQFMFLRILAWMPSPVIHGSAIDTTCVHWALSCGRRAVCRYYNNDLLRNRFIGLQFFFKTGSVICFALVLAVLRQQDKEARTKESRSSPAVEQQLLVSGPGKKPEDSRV

[7] = molecular target: T5, Organic anion transporter 3 (Homo sapiens, UniProt Q8TCC7); assay: Substrates of transporters of clinical importance in the absorption and disposition of drugs, OAT3
T5 sequence (Q8TCC7 whole entry): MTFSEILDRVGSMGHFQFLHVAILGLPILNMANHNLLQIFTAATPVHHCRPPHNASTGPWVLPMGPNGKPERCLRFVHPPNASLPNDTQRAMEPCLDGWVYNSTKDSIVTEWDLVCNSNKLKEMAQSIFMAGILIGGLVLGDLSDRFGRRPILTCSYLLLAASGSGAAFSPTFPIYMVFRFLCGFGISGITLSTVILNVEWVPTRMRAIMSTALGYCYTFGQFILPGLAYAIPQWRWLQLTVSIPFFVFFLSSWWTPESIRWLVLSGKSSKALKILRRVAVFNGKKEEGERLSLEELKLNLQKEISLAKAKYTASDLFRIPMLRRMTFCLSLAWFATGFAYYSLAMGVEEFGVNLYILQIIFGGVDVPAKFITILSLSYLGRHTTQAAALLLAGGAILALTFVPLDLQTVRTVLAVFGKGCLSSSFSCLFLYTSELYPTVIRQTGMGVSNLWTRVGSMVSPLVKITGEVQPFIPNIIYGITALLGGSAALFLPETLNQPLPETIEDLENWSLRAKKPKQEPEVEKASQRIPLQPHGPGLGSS

[8] = molecular target: T6, Solute carrier organic anion transporter family member 1B3 (Homo sapiens, UniProt Q9NPD5); assay: Substrates of transporters of clinical importance in the absorption and disposition of drugs, OATP1B3
T6 sequence (Q9NPD5 whole entry): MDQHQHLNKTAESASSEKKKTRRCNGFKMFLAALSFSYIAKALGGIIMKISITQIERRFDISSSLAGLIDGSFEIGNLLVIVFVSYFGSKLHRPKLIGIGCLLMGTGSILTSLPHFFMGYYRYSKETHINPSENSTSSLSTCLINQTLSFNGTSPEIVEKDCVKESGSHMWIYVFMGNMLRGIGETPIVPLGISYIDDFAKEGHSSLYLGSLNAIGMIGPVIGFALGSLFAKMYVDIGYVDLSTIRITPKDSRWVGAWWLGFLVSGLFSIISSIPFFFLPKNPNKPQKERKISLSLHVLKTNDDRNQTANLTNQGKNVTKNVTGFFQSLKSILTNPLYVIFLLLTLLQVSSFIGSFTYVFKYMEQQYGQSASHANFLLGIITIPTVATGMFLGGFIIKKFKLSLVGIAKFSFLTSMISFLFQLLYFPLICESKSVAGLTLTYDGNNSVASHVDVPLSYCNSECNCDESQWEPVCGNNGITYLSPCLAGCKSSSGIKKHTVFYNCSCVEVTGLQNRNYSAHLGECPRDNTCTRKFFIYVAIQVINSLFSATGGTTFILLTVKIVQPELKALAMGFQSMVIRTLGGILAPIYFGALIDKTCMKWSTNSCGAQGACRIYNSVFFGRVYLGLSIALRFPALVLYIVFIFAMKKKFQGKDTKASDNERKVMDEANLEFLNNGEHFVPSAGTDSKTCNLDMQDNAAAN

[9] = molecular target: T1, Solute carrier family 22 member 2; assay: Substrates of transporters of clinical importance in the absorption and disposition of drugs, OCT2
[10] = molecular target: T7, Solute carrier family 22 member 1 (Homo sapiens, UniProt O15245); assay: Substrates of transporters of clinical importance in the absorption and disposition of drugs, OCT1
T7 sequence (O15245 whole entry): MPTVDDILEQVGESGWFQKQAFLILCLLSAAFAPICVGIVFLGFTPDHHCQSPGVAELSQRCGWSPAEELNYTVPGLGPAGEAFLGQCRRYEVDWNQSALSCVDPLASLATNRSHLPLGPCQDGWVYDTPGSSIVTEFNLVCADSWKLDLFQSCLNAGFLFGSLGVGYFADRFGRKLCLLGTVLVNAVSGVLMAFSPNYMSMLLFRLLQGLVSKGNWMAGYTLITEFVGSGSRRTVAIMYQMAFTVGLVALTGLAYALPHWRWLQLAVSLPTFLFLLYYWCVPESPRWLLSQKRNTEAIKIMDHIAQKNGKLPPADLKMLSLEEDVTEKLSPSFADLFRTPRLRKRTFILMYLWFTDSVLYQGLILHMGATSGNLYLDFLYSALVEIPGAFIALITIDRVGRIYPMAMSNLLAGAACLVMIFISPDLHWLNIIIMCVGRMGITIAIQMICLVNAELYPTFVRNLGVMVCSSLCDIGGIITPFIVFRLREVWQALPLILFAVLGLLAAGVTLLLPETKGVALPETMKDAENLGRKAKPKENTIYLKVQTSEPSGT

For `O=C(O)COCCN1CCN(C(c2ccccc2)c2ccc(Cl)cc2)CC1` (stereo unspecified) [CETIRIZINE], the Activity [1] was “transporter inhibitor”.

For `CN/C(=N/CCSCc1nc[nH]c1C)NC#N` [CIMETIDINE], the Activity [1] was “transporter inhibitor”.

`C[C@H]1O[C@@H](O[C@H]2[C@@H](O)C[C@H](O[C@H]3[C@@H](O)C[C@H](O[C@H]4CC[C@@]5(C)[C@H](CC[C@@H]6[C@@H]5C[C@@H](O)[C@]5(C)[C@@H](C7=CC(=O)OC7)CC[C@]65O)C4)O[C@@H]3C)O[C@@H]2C)C[C@H](O)[C@@H]1O` [DIGOXIN] was tested, and the Activity [2] was “transporter substrate” and the Activity [3] was “transporter substrate”.

For `C[C@]12CC[C@@H]3c4ccc(OS(=O)(=O)O)cc4CC[C@H]3[C@@H]1CCC2=O` [ESTRONE SULFURIC ACID], the Activity [4] was “transporter substrate”, the Activity [5] was “transporter substrate” and the Activity [6] was “transporter substrate”. The Activity [7] was “transporter substrate”.

With `CC(=O)O[C@H]1C(=O)[C@@]2(C)[C@H]([C@H](OC(=O)c3ccccc3)[C@]3(O)C[C@H](OC(=O)[C@H](O)[C@@H](NC(=O)c4ccccc4)c4ccccc4)C(C)=C1C3(C)C)[C@]1(OC(C)=O)CO[C@@H]1C[C@@H]2O` [PACLITAXEL] the Activity [2] was “transporter substrate” and the Activity [3] was “transporter substrate”.

In the case of `CCCCCCCCCCCCCCSCC(=O)OC[C@H](COP(=O)([O-])OCC[N+](C)(C)C)OC(=O)CSCCCCCCCCCCCCCC` [PHOSPHATIDYLCHOLINE], the Activity [2] is reported as “transporter substrate”.

For `Cc1cccc(C)c1NC(=O)CC12CCCN1CCC2` [PILSICAINIDE], the Activity [1] was “transporter inhibitor”.

With `O=C1OC(c2ccc(O)c(S(=O)(=O)[O-])c2)(c2ccc(O)c(S(=O)(=O)[O-])c2)c2c(Br)c(Br)c(Br)c(Br)c21.[Na+].[Na+]` [SULFOBROMOPHTHALEIN SODIUM] the Activity [4] was “transporter substrate”, the Activity [5] was “transporter substrate” and the Activity [8] was “transporter substrate”. The Activity [6] was “transporter substrate”.

In the case of `C[C@]12CC[C@H]3[C@@H](CCC4=CC(=O)CC[C@@]43C)[C@@H]1CC[C@@H]2O` [TESTOSTERONE], the Activity [1] is reported as “transporter inhibitor”.

`CC[C@]1(O)C[C@@H]2CN(CCc3c([nH]c4ccccc34)[C@@](C(=O)OC)(c3cc4c(cc3OC)N(C)[C@H]3[C@@](O)(C(=O)OC)[C@H](OC(C)=O)[C@]5(CC)C=CCN6CC[C@]43[C@@H]65)C2)C1` [VINBLASTINE] was tested, and the Activity [2] was “transporter substrate” and the Activity [3] was “transporter substrate”.

For OXALIPLATIN, the Activity [9] was “transporter substrate” and the Activity [10] was “transporter substrate”.
